Experimental data reported in the supplement of paper PMC10307832.

Key:
Assay in all cases: relative viability (nuclei count vs DMSO), 5 days (fraction); higher = more cells survive
[1] = compound: CC[C@H](CO)Nc1nc(NCc2ccccc2)c2ncn(C(C)C)c2n1 [Seliciclib] + Cc1nc(Nc2ncc(C(=O)Nc3c(C)cccc3Cl)s2)cc(N2CCN(CCO)CC2)n1 [Dasatinib] (partner 0.075 µM)
Outline: (§1)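 Relative viability was taken as the ratio of nuclei in treated wells to nuclei in vehicle wells. Lung cancer cell lines in 1536-well plates received compounds by pin tool one day after seeding, either one drug alone or a fixed anchor-drug dose plus five library-drug doses (not always all listed) in √10 steps. Nuclei were counted on 4× images after 5 days of treatment, and values are medians of duplicate plates.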

[2] = compound: CC[C@H](CO)Nc1nc(NCc2ccccc2)c2ncn(C(C)C)c2n1 [Seliciclib] + CC(=O)c1c(C)c2cnc(Nc3ccc(N4CCNCC4)cn3)nc2n(C2CCCC2)c1=O [Palbociclib] (partner 0.5 µM)
Outline: as §1

[3] = compound: CC[C@H](CO)Nc1nc(NCc2ccccc2)c2ncn(C(C)C)c2n1 [Seliciclib] + CC(C)C[C@H](NC(=O)[C@H](Cc1ccccc1)NC(=O)c1cnccn1)B(O)O [Bortezomib] (partner 0.002 µM)
Outline: as §1

[4] = compound: CC[C@H](CO)Nc1nc(NCc2ccccc2)c2ncn(C(C)C)c2n1 [Seliciclib] + CCNC(=O)c1noc(-c2cc(C(C)C)c(O)cc2O)c1-c1ccc(CN2CCOCC2)cc1 [Luminespib] (partner 0.01 µM)
Outline: as §1

| Cell Line | relative viability ([1]; first compound 0.08 µM) | relative viability ([1]; first compound 0.253 µM) | relative viability ([1]; first compound 0.8 µM) | relative viability ([1]; first compound 2.53 µM) | relative viability ([1]; first compound 8 µM) | relative viability ([2]; first compound 0.08 µM) | relative viability ([2]; first compound 0.253 µM) | relative viability ([2]; first compound 0.8 µM) | relative viability ([2]; first compound 2.53 µM) | relative viability ([2]; first compound 8 µM) | relative viability ([3]; first compound 0.08 µM) | relative viability ([3]; first compound 0.253 µM) | relative viability ([3]; first compound 0.8 µM) | relative viability ([3]; first compound 2.53 µM) | relative viability ([3]; first compound 8 µM) | relative viability ([4]; first compound 0.08 µM) | relative viability ([4]; first compound 0.253 µM) | relative viability ([4]; first compound 0.8 µM) | relative viability ([4]; first compound 2.53 µM) | relative viability ([4]; first compound 8 µM) |
| --- | --- | --- | --- | --- | --- | --- | --- | --- | --- | --- | --- | --- | --- | --- | --- | --- | --- | --- | --- | --- |
| EPLC-272H | 0.329 | 0.298 | 0.408 | 0.183 | 0.266 | 0.33 | 0.247 | 0.284 | 0.323 | 0.311 | 0.872 | 0.676 | 0.991 | 1.03 | 0.907 | 0.297 | 0.204 | 0.214 | 0.177 | 0.231 |
| LCLC-103H | 0.535 | 0.499 | 0.57 | 0.276 | 0.481 | 0.524 | 0.51 | 0.486 | 0.469 | 0.423 | 0.94 | 1.03 | 0.92 | 0.939 | 1.01 | 1.02 | 0.958 | 0.763 | 0.993 | 0.774 |
| NCI-H2405 | 0.211 | 0.219 | 0.197 | 0.171 | 0.212 | 0.485 | 0.483 | 0.552 | 0.361 | 0.452 | 0.984 | 0.956 | 0.946 | 0.922 | 0.905 | 0.676 | 0.661 | 0.799 | 0.385 | 0.548 |
| HCC-15 | 0.645 | 0.633 | 0.461 | 0.512 | 0.448 | 0.846 | 0.782 | 0.666 | 0.726 | 0.493 | 1.05 | 1.1 | 0.898 | 0.966 | 0.826 | 0.275 | 0.386 | 0.304 | 0.33 | 0.309 |
| PC-3 [JPC-3] | 1.04 | 1 | 0.982 | 0.936 | 0.946 | 0.477 | 0.615 | 0.543 | 0.498 | 0.476 | 0.895 | 0.911 | 0.738 | 0.695 | 0.742 | 0.81 | 0.584 | 0.63 | 0.605 | 0.66 |
| HARA | 0.288 | 0.274 | 0.319 | 0.228 | 0.245 | 0.284 | 0.282 | 0.229 | 0.259 | 0.163 | 1.09 | 1.27 | 1.04 | 1.25 | 1.03 | 0.727 | 0.764 | 0.65 | 1.12 | 0.581 |
| NCI-H2126 | 0.671 | 0.598 | 0.557 | 0.334 | 0.501 | 0.345 | 0.332 | 0.358 | 0.315 | 0.338 | 1.12 | 1.14 | 1.07 | 0.957 | 1.04 | 0.906 | 0.733 | 0.89 | 0.642 | 0.781 |
| LXF-289 | 0.245 | 0.202 | 0.248 | 0.128 | 0.221 | 0.561 | 0.677 | 0.59 | 0.543 | 0.501 | 0.981 | 1.11 | 0.904 | 0.971 | 0.838 | 0.603 | 0.778 | 0.545 | 0.642 | 0.56 |
| NCI-H460 | 0.524 | 0.391 | 0.357 | 0.288 | 0.363 | 0.203 | 0.186 | 0.169 | 0.117 | 0.0761 | 1.14 | 1.26 | 1.09 | 1.48 | 0.912 | 0.0402 | 0.0324 | 0.0419 | 0.0357 | 0.0269 |
| NCI-H2009 | 0.322 | 0.376 | 0.307 | 0.233 | 0.288 | 0.202 | 0.0934 | 0.162 | 0.155 | 0.161 | 1.05 | 1.21 | 0.908 | 0.911 | 0.941 | 0.998 | 1.13 | 1.07 | 1.01 | 0.943 |
